Experimental data from patent publication US20170165253A1, “TREATMENT OF SEXUAL DYSFUNCTION AND FOR IMPROVED SEXUAL QUALITY OF LIFE” (ReJoy, priority 2015, published 2017).
Several values for one entry are separate records, joined by “and”; a condition that tells them apart may be missing. Equal values may be shown once. Where a name gives a salt, the structure may show the parent alone.

Experiments:
[1] = IVRT skin penetration, synthetic skin model; format: in vitro ADME; conditions: 10% solution
Excerpt: (§1) Transdermal penetration of a particular formulation can be assessed with in vitro release testing (IVRT) using a Franz cell. See Bartosova and Bajagar, “Transdermal Drug Delivery In Vitro Using Diffusion Cells,” Current Medicinal Chemistry, 2012, 19, 4671-4677.
(§2) In order to determine the dermal absorption and bioavailability of topically applied 10% Phenylephrine Hydrochloride solution, we used an IVRT experimental setup with both skin excised from pig ears and a synthetic skin model (Maine Manufacturing, LLC, Me., USA).

[2] = Heart rate, blood pressure and adverse events in Example 12; format: in vivo, human; conditions: for Delta HR t = 15: 15 minutes; for Delta HR t = 15 / Delta HR t = 30 / Delta HR t = 60: single patients, Hydrochloride; for Delta HR t = 30: 30 minutes; for Delta HR t = 60: 60 minutes
Experimental: 20 healthy, pre-menopausal females were recruited to the study. Subjects were instructed to apply either 4 or 6 drops of an investigational drug to each nipple areola complex. Baseline blood-pressure, heart rate, nipple erection, nipple sensitivity, genital lubrication and arousal were measured and recorded. […]

[3] = Blood pressure and heart rate after topical application on the nipple-areola complex (Example 2); format: in vivo, human
Experimental: A study of the blood pressure and heart rate of five patients receiving topical application on the nipple-areola complex was made. The composition applied was 0.1 mL of a 10% phenylephrine solution for a total dosage of 10 mg phenylephrine HCl. Blood pressure and heart rate were measured at baseline (T=0), after 15 minutes and 30 minutes.

arrector pili muscle = conditions: 1% w/v, iontophoresis; cited from earlier work
[4] = tested on: skin on the subjects forearm; experiment: pH pilot study, pilomotor effect on forearm skin (Example 6); format: in vivo, human; conditions: 10% solution
Experimental: A pilot study was conducted to assess the optimal pH of topical phenylephrine solution required to elicit smooth muscle contraction on the skin. A series of 10% phenylephrine solutions were prepared in phosphate buffer solutions of varied pH. pH 4.6, 4.8, 5.0, 5.2, 5.4, 5.6, 5.8, 6.0, 6.2, 6.4, and 6.6 were used. Areas of skin on the subjects forearm were marked with a surgical pen. 50 microliter of each solution were applied to the marked area of skin and allowed to dry. After one hour the sites of application were visually inspected for the appearance of the pilomotor effect (i.e., “goose bumps”).

nipple areola complex = experiment: Iontophoresis patch erection of the nipple areola complex (Example 10); format: in vivo, human; conditions: 1.3 mL 1% solution, iontophoresis patch 1 hour
Experimental: In the following experiment, a commercially available iontophoresis patch was used to erect the nipple of a subject.
1. The nipple and areola of each breast were prepared by cleaning with a sterile alcohol pad.
2. Two Inotopatch 80 (Travanti Medical) patches were removed from packaging.
3. The positive electrode of the first patch was filled with 1.3 mL of a 1% phenylephrine hydrochloride.
4. The negative electrode of the first patch was filled with 1.3 mL of a saline solution.
5. The positive electrode (approximately 1.5 cm diameter) containing the drug was placed over the nipple areola complex of the right breast; the negative electrode was placed on the adjacent breast tissue outside the nipple areola complex of the right breast.
6. Steps 2-5 were repeated, however, both electrodes of the Inotopatch 80 were filled with 1.3 mL of saline. The patch was applied to left breast following the procedure of step 5.
7. The patches were left in place (adhesive) for 1 hour (dosage=[…], 80 mA/min).
8. After 1 hour the patches were removed.

[5] = IVRT Franz cell skin penetration, excised pig skin; format: in vitro ADME
[6] = IVRT Franz cell skin penetration, excised pig skin; format: in vitro ADME; conditions: for Penetration (%), Sample 1-3 / Penetration (%), Average: pig skin; for Penetration (%), Sample 1-3: single replicates, Hydrochloride
Excerpt: as §1, §2
In the example, the following data was obtained from a Franz cell diffusion experiment using excised pigskin barrier. A 50 microliter aliquot of a phenylephrine solution was allowed to penetrate through 9 mm diameter sample of pigskin into a 5 mL reservoir of phosphate buffered saline. Phenylephrine concentration was determined in the reservoir by measuring the optical absorbance at 214 nm at time points subsequent to the application of the formulation. In the following example the test solution was 10% (w/w) phenylephrine, 10% (w/w) Dimethyl Isosorbide, and 80% (w/w) ethanol. From the data below, it can be concluded that the formulation can be deemed “successful” because 82% of the applied drug penetrated the pigskin membrane in 3 hours. The experiment was run in triplicate. The average of all three data is shown. It is envisioned that additional studies may be undertaken with other models of in vitro release testing or with variations of the same model to compare with the data reported below.

[7] = 0.1 mL 10% solution on NAC, 15 minutes, single subjects, listed as PHCI, Hydrochloride
[8] = 0.1 mL 10% solution on NAC, 30 minutes, single subjects, listed as PHCI, Hydrochloride

In the case of `CNC[C@H](O)c1cccc(O)c1` [Phenylephrine HCl, Phenylephrine Hydrochloride], the “maximal skin absorption in 24 hours” value [1] was at most 83%, the “Delta HR t = 15” value ([2]; 10% Arm C, four drops (0.114 mL) per NAC) was −3 (2×) and −10 and 3 (4×) and −7 and 0 (3×) and −1 (2×) and −2 (3×) and 4 and −9 and 6 and −5 and the “Delta HR t = 30” value ([2]; 10% Arm C, four drops) was −2 and −12 and 13 and −7 (3×) and −3 (2×) and −1 (2×) and 5 and 7 (2×) and 3 (2×) and −4 (3×) and 0 (2×). The “Delta HR t = 60” value ([2]; 10% Arm C, four drops) was −2 (2×) and −7 and −1 (3×) and −6 (2×) and −4 (4×) and 5 (2×) and −8 and 7 and 2 (2×) and −9 and −10, the “Delta HR t = 15” value ([2]; 15% (Arm D), four drops) was −9 (4×) and 1 (2×) and 0 and −4 (2×) and −6 and 4 and −15 and −8 and −5 and −3 (3×) and 6 and −1 and −2 and the “Delta HR t = 30” value ([2]; 15% (Arm D), four drops) was −14 and 4 (2×) and 0 and −1 and −2 (3×) and 6 and −10 (2×) and −4 and −5 and 2 and −12 and 8 and 5 and 1 and 3 and −8. The “Delta HR t = 60” value ([2]; 15% (Arm D), four drops) was −16 and 4 and −6 (3×) and −2 (4×) and −4 and −7 and −9 and 1 and −3 (2×) and 0 (2×) and −10 and 2 and −11, the “Delta HR t = 15” value ([2]; 20% (Arm B), four drops) was −15 and 3 and −2 (2×) and −1 (2×) and −6 (2×) and 2 and −4 (2×) and −10 and 6 and 1 and −7 and −5 and 10 and −3 and 7 and 0 and the “Delta HR t = 30” value ([2]; 20% (Arm B), four drops) was −20 and 4 and −6 and −14 and −3 (2×) and 7 (2×) and 1 (3×) and −1 (2×) and −7 and 10 (2×) and −9 (2×) and 3 and 6. For the same molecule, the “Delta HR t = 60” value ([2]; 20% (Arm B), four drops) was −21 (2×) and 3 and 1 and −13 and 6 and −1 and 0 (2×) and −8 and −6 (2×) and 4 (2×) and −3 (2×) and −4 and 11 and 9 and −2, the adverse event ([2]; 20% arm) was “one adverse event (nipple pain)” and the “changes in blood pressure or heart rate” value ([2]; all arms, 10-20%) was “no changes in blood pressure or heart rate”. For the same molecule, the “BP (T = 15)” value [3, 7] was 112/76 and 122/77 and 117/72 and 120/72 and 99/67, the “HR (T = 15)” value [3, 7] was 69 and 77 and 75 and 53 and 68 and the “BP (T = 30)” value [3, 8] was 117/75 and 122/78 and 128/77 and 116/68 and 97/63. The “HR (T = 30)” value [3, 8] was 74 and 80 and 68 and 58 and 69, the “change in blood pressure or heart rate” value ([3]; 0.1 mL 10% solution, five patients, 15 and 30 minutes) was “No significant change in blood pressure or heart rate” and the “piloerection on the forearm” value (arrector pili muscle) was “can activate the piloerection on the forearm”. The “Results after 1 hour (pilomotor effect)” value ([4]; pH 4.6, 50 microliter on forearm) was “None”, the “Results after 1 hour (pilomotor effect)” value ([4]; pH 4.8) was “Slight” and the “Results after 1 hour (pilomotor effect)” value ([4]; pH 5.0) was “Strong”. For the same molecule, the “Results after 1 hour (pilomotor effect)” value ([4]; pH 5.2) was “Strong”, the “Results after 1 hour (pilomotor effect)” value ([4]; pH 5.4) was “Strong” and the “Results after 1 hour (pilomotor effect)” value ([4]; pH 5.6) was “Slight”. For the same molecule, the “Results after 1 hour (pilomotor effect)” value ([4]; pH 5.8) was “Slight”, the “Results after 1 hour (pilomotor effect)” value ([4]; pH 6.0) was “None” and the “Results after 1 hour (pilomotor effect)” value ([4]; pH 6.2) was “None”. The “Results after 1 hour (pilomotor effect)” value ([4]; pH 6.4) was “None”, the “Results after 1 hour (pilomotor effect)” value ([4]; pH 6.6) was “None” and the nipple sensitivity (nipple areola complex; one subject) was “increased sensitivity in the right nipple compared to the left nipple”. The nipple erection (nipple areola complex; right nipple vs saline left) was “visibly erect”, the “total absorption over 24 hours” value ([5]; 0.1 mL of 10% solution per NAC, both NAC) was 16.6 mg and the “less systemic exposure compared to the oral OTC drug” value ([5]; topical dosage vs one 10 mg oral tablet every 4 hours) was “approximately 45%”. For the same molecule, the “average absorption per nipple-areola complex” value ([6]; 0.1 mL of 10% solution not removed for 24 hours) was 8.3 mg, the “applied drug penetrated the pigskin membrane” value ([6]; 10% (w/w) in 10% Dimethyl Isosorbide, 80% ethanol, 3 hours) was 82% and the “Penetration (%), Sample 1-3” value ([6]; 10% solution, 50 microliter, 1 h) was 32.3% and 2.1% and 0.7%. For the same molecule, the “Penetration (%), Average” value ([6]; 10% solution, 1 h) was 11.7%, the “Penetration (%), Average” value ([6]; 10% solution, 2 h) was 61.1% and the “Penetration (%), Sample 1-3” value ([6]; 10% solution, 2 h) was 80.6% and 89.0% and 13.6%. For the same molecule, the “Penetration (%), Average” value ([6]; 10% solution, 3 h) was 82.8%, the “Penetration (%), Sample 1-3” value ([6]; 10% solution, 3 h) was 78.9% and 87.5% and 81.9% and the “Penetration (%), Average” value ([6]; 10% solution, 4 h) was 81.0%. For the same molecule, the “Penetration (%), Sample 1-3” value ([6]; 10% solution, 4 h) was 78.6% and 83.4% and 81.1%, the “Penetration (%), Average” value ([6]; 10% solution, 5 h) was 81.9% and the “Penetration (%), Sample 1-3” value ([6]; 10% solution, 5 h) was 78.5% and 86.0% and 81.3%. The “Penetration (%), Average” value ([6]; 10% solution, 24 h) was 81.6%, the “Penetration (%), Sample 1-3” value ([6]; 10% solution, 24 h) was 81.3% and 83.1% and 80.3% and the “maximal skin absorption in 24 hours” value ([6]; 10% solution, skin excised from pig ears) was at most 83%.
